Test results taken from patent US6498149B1, “Natural antitumor or antiviral substances and use of the same” (Techno Seven Co., Ltd., priority 1997, dated 2002).

Experiments:
[1] = Physico-chemical properties (solubility, acid/base nature); type: physicochemical
[2] = system: Molt4 (human T cell leukemia cell line); assay: Suppression of incorporation of 3H-thymidine into / proliferation of the Molt4 cell; type: cell-based; settings: samples from single HPLC peaks, 7 μg/ml
Protocol: The apoptosis inducing factor (AIF) is produced and released in the supernatant of the NS cell line culture. Thus, the AIF produced by the NS cell was separated and purified by the physico-chemical methods. The activity of AIF was measured by the ability of […] and the DNA fragmentation method. First, the supernatant of the culture of the NS cell line was adsorbed on a C18 column and eluted to separate the AIF. The crude extract was developed on a thin layer chromatography (TLC) plate, and the active fractions were isolated and purified by reverse phase high performance liquid chromatography (HPLC).
The sample lyophilized from 50 ml of the supernatant of the NS cell line culture was subjected to chromatography on a C18 column (BONDELUTE), and the fraction retained in the column was separated and eluted with acetonitrile and methanol, and concentrated to dryness by evaporating the solvents with nitrogen gas.
The fraction was further developed by TLC. That is to say, the solution of the materials separated on the C18 column in chloroform: methanol (1:1) was spotted on a thin layer and developed by chloroform: methanol: distilled water (60:40:8). […]

discrimination of acidic, neutral and basic substances [1] | SMILES | solubility [1] | suppression of incorporation of 3H-thymidine into the Molt4 cell [2]
basic substance | CO[C@@H]1[C@H](O)[C@@H](CO)O[C@H]1n1cnc2c(O)ncnc21 [P5, 2′-O-methylinosine] | soluble in organic solvents such as methanol, dimethylsulfoxide and in water | 
basic substance | Cc1cn([C@@H]2O[C@H](CO)[C@@H](O)[C@H]2O)c(=O)[nH]c1=O [P2, ribothymidine] | soluble in organic solvents such as methanol, dimethylsulfoxide and in water | strong activity
basic substance | CO[C@@H]1[C@H](O)[C@@H](CO)O[C@H]1n1cnc2c(=O)[nH]c(N)nc21 [P6, 2′-O-methylguanosine] | soluble in organic solvents such as methanol, dimethylsulfoxide and in water | 

SMILES | discrimination of acidic, neutral and basic substances [1] | solubility [1] | suppression of incorporation of 3H-thymidine into the Molt4 cell [2]
Cc1cn([C@H]2C[C@H](O)[C@@H](CO)O2)c(=O)[nH]c1=O [P4, thymidine] | basic substance | soluble in organic solvents such as methanol, dimethylsulfoxide and in water | 
